Key:
[1] = system: FAM-labeled FEN1 rG4 (RNA, G4) AGGGGCCUGCGGGGACCUGGUGUGGGUGGAGUGGGGAC; experiment: native PAGE mobility (G4 unfolding); conditions: 100 mM KCl, 12 mM NaCl; 100 mM KCl in gel; 12% gel, 4 °C; RNA 5 μM; TMPyP4 unfolds rG4
[2] = system: r-PQS4 (FEN1 rG4) (RNA, G4) AGGGGCCUGCGGGGACCUGGUGUGGGUGGAGUGGGGAC; experiment: CD titration (loss of 265 nm ellipticity); conditions: 100 mM KCl, 12 mM NaCl; 50 mM Tris-HCl pH 7.4; RNA 5 μM; TMPyP4 added before annealing (legend: pre-folded); disrupts G4
[3] = system: r-PQS4 (FEN1 rG4) (RNA, G4) AGGGGCCUGCGGGGACCUGGUGUGGGUGGAGUGGGGAC; experiment: UV-Vis absorption shift; conditions: 100 mM KCl, 12 mM NaCl; 50 mM Tris-HCl pH 7.4; pre-folded RNA 5 μM; TMPyP4 printed as 100 mM

binding [1]: yes | binding [2]: yes | binding [3]: yes
SMILES: C[n+]1ccc(-c2c3nc(c(-c4cc[n+](C)cc4)c4ccc([nH]4)c(-c4cc[n+](C)cc4)c4nc(c(-c5cc[n+](C)cc5)c5ccc2[nH]5)C=C4)C=C3)cc1

From paper PMC9952066 (2023)
